Laboratory results published in patent US20180110837A1, “METHODS AND ASSAYS RELATING TO MACROPHAGE DIFFERENTIATION” (THE BRIGHAM AND WOMEN'S HOSPITAL, INC., priority 2012, published 2018).
Entries after “also recorded” stand apart in the source; their conditions may differ.

Assays:
[1] = in vivo; cited from earlier work
ROCK1 [2] = target: T1, ROCK1 (Homo sapiens, UniProt Q13464); settings: at concentrations up to 10 μM; cited from earlier work
T1 construct: recombinant ROCK1 and ROCK2 enzymes containing the truncated catalytic domains (PV3691 and PV3759) were purchased from Invitrogen; purchased Invitrogen PV3691

CNV lesions [3] = assay: laser-induced CNV in rats, intravitreal ROCK inhibition; type: in vivo, Brown Norway rats
Excerpt: (§1) To induce CNV, C57BL/6 mice were anesthetized and pupils were dilated with 5% phenylephrine and 0.8% tropicamide. Using a 532-nm laser (Oculight GLx, Iridex), a slit-lamp delivery system, and a cover glass as a contact lens, four spots (100 mW, 50 μm, 100 ms) were placed in each eye. The lesions were located at 3, 6, 9 and 12 o'clock, meridians centered on the optic nerve head and located 2 to 3 disk diameter from the optic nerve head. The same technique was used to induce CNV in Brown Norway rats (four spots, 150 mW, 100m, 100 ms) 53,54 and cynomolgus monkeys (700 mW, 100m, 100 ms) 29. Development of a bubble under laser radiation confirmed the rupture of the Bruch's membrane. Eyes showing hemorrhage were excluded from experiments.
Seven or fourteen days after laser injury, the size of CNV lesions was measured in choroidal flat mounts. Briefly, mice were anesthetized and perfused through the left ventricle with PBS, followed by 5 ml of 5% fluorescein isothiocyanate-dextran (FD2000S; Sigma Aldrich) in 1% gelatin. The anterior segment and retina were removed from the eyecup. […] The volume of the lesions was quantified, using confocal microscopy (Leica TCS SP2 laser scanning confocal microscope). The magnitude of the CNV lesions was determined by measuring the hyperfluorescent area with Openlab Software (Improvision). The grade of leakage was determined by Fluorescein angiography (FA). […]

CNV lesions [4] = assay: laser-induced CNV in mice, lesion size in choroidal flat mounts; type: in vivo, mouse; settings: for CNV lesions on day 14: treatment from day 1 or from day 7 after laser injury
Excerpt: as §1
Seven or fourteen days after laser injury, the size of CNV lesions was measured in choroidal flat mounts. Briefly, mice were anesthetized and perfused through the left ventricle with PBS, followed by 5 ml of 5% fluorescein isothiocyanate-dextran (FD2000S; Sigma Aldrich) in 1% gelatin. The anterior segment and retina were removed from the eyecup. The remaining retinal pigment epithelium (RPE)-choroidsclera complex was flat mounted, after relaxing radial incisions, using Mounting Medium (FM 100119, Thermo Scientific) and coverslips. Micrographs of the choroidal complex were taken with a Leica Microscope. The volume of the lesions was quantified, using confocal microscopy (Leica TCS SP2 laser scanning confocal microscope). The magnitude of the CNV lesions was determined by measuring the hyperfluorescent area with Openlab Software (Improvision). The grade of leakage was determined by Fluorescein angiography (FA).
The control animals received equivalent amounts of vehicle, glyceryl trioctanoate (91039, Sigma-Aldrich).

[5] = electroretinography (ERG) after intravitreal injection; type: in vivo, Brown Norway rats; settings: rats, intravitreal injections on days 0, 3 and 6
Procedure: On day 13, rats were dark-adapted overnight and then anesthetized. Pupils were dilated using 1% tropicamide. Methods for recording dark- and light-adapted ERGs were performed as previously described 55.

HUVEC cells = assay: cytoskeletal staining (F-actin, paxillin) of HUVEC cells; type: cell-based; settings: versus vehicle treated controls
Excerpt: FIG. 11A depicts HUVEC cells stained for the cytoskeletal proteins F-actin and paxillin. […] Scale bar, 20 μm. FIG. 11B depicts Western analysis of HUVECs transfected with siRNA targeting of ROCK1, ROCK2, or both. Negative control, a scramble 20-mer RNA. BlockIt (Invitrogen), a fluorescently labeled RNA to track uptake/transfection efficiency.

[6] = system: vascular leakage of CNV lesions; assay: leakage from angiogenic vessels by fluorescein angiography after laser injury; type: in vivo, mice
Procedure: FA was performed in anesthetized Brown Norway rats from ROCK inhibitor or vehicle treated groups, using a digital fundus camera (SLO; HRA2; Heidelberg Engineering), 7 and 14 days after laser injury. Fluorescein injections were performed intravenously (0.2 ml of 2% fluorescein; Akorn, NDC 17478-253-10). Monkeys were injected with 5% fluorescein intravenously (Fluorescite, Alcon). FA images were evaluated by two masked retina specialists. The grading criteria were as follows: Grade-0, no hyperfluorescence; Grade-I, hyperfluorescence without leakage; Grade-IIA, hyperfluorescence in the early or mid-transit images and late leakage; Grade-IIB, bright hyperfluorescence in the transit images and late leakage beyond the treated areas. The Grade-IIB lesions were considered as clinically significant, as described previously 53. […] The control animals received equivalent amounts of vehicle, glyceryl trioctanoate (91039, Sigma-Aldrich).

[7] = system: CD11b/CD206 infiltrating cells in CNV; assay: FACS analysis of infiltrating cells from CNV eyes; type: in vivo, mouse
Procedure: To examine macrophages in the retina and choroid, cells were prepared from mouse eyes. To collect a sufficient number of ocular infiltrating cells, 50 burns were delivered to mouse eyes by laser. After laser injury, eyes were enucleated at different time points (1, 2, 3, 5, and 7 days). The anterior segment (cornea, iris, and lens) was excised and the posterior segment of the eye including sclera, choroid, and retina was disrupted with scissors and then shaken in DMEM (plus 10% FBS (Gibco Laboratories), 100 U/ml penicillin, 100 μg/ml streptomycin) supplemented with 0.5 mg/ml Collagenase type D (11 088 874 103, Boehringer Mannheim) at 37° C. for 60 min. The supernatants were collected and passed through a mesh. After 3 washes, viable cells were obtained. A total of 12 eyes (6 individual pools) were examined per group. The cells were stained with PE anti-mouse CD11b (557397, BD Pharmingen), FITC antimouse CD206 (MMR, 123005; BioLegend) and PE-Cy5 anti-mouse CD80 Abs (15-0801-81, eBioscience). RAW 264.7 cells were stained with PerCP anti-mouse CD11b (101230, BioLegend), PerCP anti-mouse F4/80 (123006, BioLegend), PE anti-mouse CD80 (12-0801, eBioscience), FITC anti-mouse CD206 (141704, BioLegend). […] The control animals received equivalent amounts of vehicle, glyceryl trioctanoate (91039, Sigma-Aldrich).

ROCK1 [8] = target: T1, ROCK1; assay: ROCK1 enzymatic activity, [γ33P]ATP / S6 kinase substrate radiometric assay (FIG. 7A); type: biochemical; settings: FIG. 7B; ROCK1 versus ROCK2
protein kinase A and C = settings: cited from earlier work
CNV lesions [9] = assay: laser-induced CNV in cynomolgus monkeys, intravitreal fasudil; type: in vivo, cynomolgus monkey
Procedure: Eyes from cynomolgus monkeys between 3 and 4 years of age were used in this study. Cynomolgus monkeys were restrained in a squeeze cage and injected intramuscularly in the thigh with 20 mg/kg of ketamine hydrochloride (Sankyo Yell Pharmaceutical Products Co) for general anesthesia.
Paraffin embedded sections of human eyes were deparaffinized and rehydrated with a graded alcohol series. Immunofluorescent staining was performed with antibodies (Abs) against human von Willebrandt factor (F3520, Sigma), human MMR (CD206, MAB2534, R&D Systems), human CD80 (ab53003 Abcam) or human ROCK1 (sc-17794, Santa Cruz Biotechnology) or ROCK2 (sc-1851, Santa Cruz Biotechnology) and identified with Alexa Fluor 488 (10 μg/ml, A-11055; Invitrogen) or 647 (10 μg/ml, A21244; Invitrogen) secondary Abs. On day 3 after laser injury, 10 μm frozen sections of the posterior segment were prepared. The mouse eye sections were incubated with a rat anti-mouse F4/80 mAb (MCA497R, AbD Serotec) or CD11b (550282, BD Pharmingen), and subsequently with the secondary Ab. In monkey eyes, CD68 (goat polyclonal antibody, sc-7082, Santa Cruz), vWF (rabbit polyclonal antibody, A0082, DAKO), ROCK1 (mouse monoclonal antibody, sc-17794, Santa Cruz) and ROCK2 (goat polyclonal antibody, sc-1851, Santa Cruz) were stained. Images were obtained with a Leica microscope.
To induce CNV, C57BL/6 mice were anesthetized and pupils were dilated with 5% phenylephrine and 0.8% tropicamide. Using a 532-nm laser (Oculight GLx, Iridex), a slit-lamp delivery system, and a cover glass as a contact lens, four spots (100 mW, 50 μm, 100 ms) were placed in each eye. The lesions were located at 3, 6, 9 and 12 o'clock, meridians centered on the optic nerve head and located 2 to 3 disk diameter from the optic nerve head. […]
FA was performed in anesthetized Brown Norway rats from ROCK inhibitor or vehicle treated groups, using a digital fundus camera (SLO; HRA2; Heidelberg Engineering), 7 and 14 days after laser injury. […] FA images were evaluated by two masked retina specialists. […]

MLCK = settings: read-out: Ki MLCK; cited from earlier work
all tested kinases = settings: scale of 0 to 1; over 175 inhibitors; cited from earlier work
[10] = IL-4, IL-10 and IL-13 injected eyes, in addition ROCK2 inhibitor treated
[11] = M1-cytokine cocktail injected eyes, in addition ROCK2 inhibitor treated
[12] = systemic treatment after laser injury
[13] = monkeys, intravitreal injections

T1 sequence (Q13464 76-338 limits assumed): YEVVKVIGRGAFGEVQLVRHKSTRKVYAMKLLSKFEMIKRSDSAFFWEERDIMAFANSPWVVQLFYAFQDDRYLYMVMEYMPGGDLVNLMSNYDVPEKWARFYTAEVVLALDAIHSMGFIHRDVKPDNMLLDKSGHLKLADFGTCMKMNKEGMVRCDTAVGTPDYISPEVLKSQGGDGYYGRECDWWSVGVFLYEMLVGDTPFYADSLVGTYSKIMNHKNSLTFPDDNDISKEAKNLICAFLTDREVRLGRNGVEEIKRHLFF

In the case of `CC(C)NC(=O)COc1cccc(-c2nc(Nc3ccc4[nH]ncc4c3)c3ccccc3n2)c1` [SLx-2119], the “phase I clinical (toxicity) trial” value [1] is given as “successfully completed”, the ROCK1 enzymatic activity (ROCK1 [2]) is given as “did not affect” and the “CNV size (day 7)” value (CNV lesions [3]) is given as “reduces CNV”. The CNV size (CNV lesions [4]; [10]) was “reduced to control levels”, the CNV (CNV lesions [4]; [11]) was “remained unaffected” and the “CNV size in adiponectin−/− mice” value (CNV lesions [4]; adiponectin−/− mice) was “lack of function”. The “dose at which maximum efficacy was reached” value (CNV lesions [4]; intraperitoneal) was 10 mg/kg, the “reduction of CNV” value (CNV lesions [4]; intraperitoneal, dose of 1 mg/kg) was 66% and the “CNV size” value (CNV lesions [4]; [12]) was “significantly decreased”. For the same compound, the “CNV size” value (CNV lesions [4]; systemic treatment after laser injury, listed as selective ROCK2 inhibitor) was “significantly reduced”, the “CNV lesions on day 14” value (CNV lesions [4]; listed as ROCK2 inhibitor) was “reduced; also recorded: CNV reduction” and the “changes in the electroretinogram (ERG)” value [5] was “does not cause functional ERG changes”. For the same compound, the paxillin distribution (HUVEC cells) was “comparable to the control cells”, the “percentage of clinically relevant 2B leakage” value [6, 10] was “reduced to control levels” and the leakage [6, 11] was “remained unaffected”. The “leakage / percentage of the clinically relevant 2B leakages” value ([6]; fluorescein angiography) was “significantly decreased” and the MaDAMs [7] was “significantly decreased”.
For `C[C@@H](N)[C@H]1CC[C@H](C(=O)Nc2ccncc2)CC1` [Y-27632, (R)-(+)-trans-N-(4-pyridyl)-4-(1-aminoethyl)-cyclohexanecarboxamide], the “inhibitory activities against ROCK1 and ROCK2 compared” value (ROCK1 [8]) is listed as “equipotent”, the paxillin distribution (HUVEC cells) is listed as “concentrated in the nuclear or immediate perinuclear regions” and the “effect on protein kinase A and C” value (protein kinase A and C) is listed as “affect”.
With `Cl.O=S(=O)(c1cccc2cnccc12)N1CCCNCC1` [fasudil, 5-(1,4-diazepan-1-ylsulfonyl)isoquinoline hydrochloride] the “inhibitory activities against ROCK1 and ROCK2 compared” value (ROCK1 [8]) was “equipotent”, the “CNV size (day 7)” value (CNV lesions [3]) was “reduces CNV” and the “macrophage infiltration into CNV lesions” value (CNV lesions [9]; monkey eyes, intravitreal injection) was “significantly reduced”. The CNV membrane thickness (CNV lesions [9]; [13]) was “significantly reduced”, the “percentage of the clinically relevant 2B leakages” value (CNV lesions [9]; [13]) was “significantly reduced” and the “reduction of CNV lesions compared to control” value (CNV lesions [4]; pan ROCK inhibition, rodents) was about 60%. The “CNV size” value (CNV lesions [4]; [12]) was “significantly smaller”, the “CNV lesions on day 14” value (CNV lesions [4]) was “CNV reduction” and the “changes in the electroretinogram (ERG)” value [5] was “does not cause functional ERG changes”. For the same compound, the Ki (MLCK) was 36 µM, the gini score (all tested kinases) was 0.63 and the paxillin distribution (HUVEC cells) was “concentrated in the nuclear or immediate perinuclear regions”. The “effect on protein kinase A and C” value (protein kinase A and C) was “affect”.
